# According to ChEMBL document CHEMBL5055630, “Design, synthesis and biological evaluation of indole-based [1,2,4]triazolo[4,3-a] pyridine derivatives as novel microtubule polymerization inhibitors” (Eur J Med Chem, 2021):
# Calls of active or inactive are those of the source. The calls are words filed in the database; no cut-off is given here.
# How the values were obtained:
# HeLa [1] = test: Induction of apoptosis in human HeLa cells assessed as reduction in Bcl-xl protein expression after 24 hrs by Western blot analysis; assay type: functional, cell-based; conditions: dose 10-1000 nM
# [2] = Metabolic stability in human liver microsomes assessed as parent compound remaining after 90 mins; assay type: ADME, Microsome; conditions: read-out: Stability
# HeLa [3] = test: Induction of apoptosis in human HeLa cells assessed as increase in cleaved caspase 3 protein expression after 24 hrs by Western blot analysis; assay type: functional, cell-based; conditions: dose 10-1000 nM
# HeLa [4] = test: Induction of apoptosis in human HeLa cells assessed as early apoptotic cells at 25 nM incubated for 48 hrs by Annexin V and propidium iodide Staining based assay (reference value: 0.2%); assay type: functional
# HeLa [5] = test: Induction of apoptosis in human HeLa cells assessed as reduction in Bcl-2 protein expression after 24 hrs by Western blot analysis; assay type: functional, cell-based; conditions: dose 10-1000 nM
# HeLa [6] = test: Induction of apoptosis in human HeLa cells assessed as increase in cleaved-PARP 1 protein expression after 24 hrs by Western blot analysis; assay type: functional, cell-based; conditions: dose 10-1000 nM
# [7] = Metabolic stability in human liver microsomes assessed as parent compound remaining after 60 mins; assay type: ADME, Microsome; conditions: read-out: Stability
# HeLa [8] = test: Induction of apoptosis in human HeLa cells assessed as early apoptotic cells at 10 nM incubated for 48 hrs by Annexin V and propidium iodide Staining based assay (reference value: 0.2%); assay type: functional
# A549 = test: Antiproliferative activity against human A549 assessed as reduction in cell viability measured after 48 hrs by MTT assay; assay type: functional, cell-based; conditions: A549, 48 h
# HeLa [9] = test: Induction of apoptosis in human HeLa cells assessed as late apoptotic cells at 50 nM incubated for 48 hrs by Annexin V and propidium iodide Staining based assay (reference value: 1 %); assay type: functional
# HeLa [10] = test: Induction of apoptosis in human HeLa cells assessed as necrotic cells at 10 nM incubated for 48 hrs by Annexin V and propidium iodide Staining based assay (reference value: 0.4%); assay type: functional
# HeLa [11] = test: Inhibition of cell migration in human HeLa cells at 5 nM incubated for 24 hrs by microscopy method relative to control; assay type: functional
# HeLa [12] = test: Induction of cell cycle arrest in human HeLa cells assessed as accumulation of cells at G2/M phase at 5 nM incubated for 24 hrs by propidium iodide staining based flow cytometry analysis; assay type: functional
# [13] = Metabolic stability in human liver microsomes assessed as parent compound remaining after 30 mins; assay type: ADME, Microsome; conditions: read-out: Stability
# HeLa [14] = test: Induction of cell cycle arrest in human HeLa cells assessed as increase in cyclin B1 level at 10 to 1000 nM measured after 24 hrs by immunoblotting assay; assay type: functional, cell-based; conditions: dose 10-1000 nM
# HeLa [15] = test: Induction of cell cycle arrest in human HeLa cells assessed as reduction in Cdc25c expression at 10 to 1000 nM measured after 24 hrs by immunoblotting assay; assay type: functional, cell-based; conditions: dose 10-1000 nM
# HeLa [16] = test: Antiproliferative activity against human HeLa assessed as reduction in cell viability measured after 48 hrs by MTT assay; assay type: functional, cell-based
# HeLa [17] = test: Inhibition of cell migration in human HeLa cells at 25 nM incubated for 24 hrs by microscopy method relative to control; assay type: functional
# HeLa [18] = test: Induction of apoptosis in human HeLa cells assessed as early apoptotic cells at 50 nM incubated for 48 hrs by Annexin V and propidium iodide Staining based assay (reference value: 0.2%); assay type: functional
# HeLa [19] = test: Induction of apoptosis in human HeLa cells assessed as late apoptotic cells at 25 nM incubated for 48 hrs by Annexin V and propidium iodide Staining based assay (reference value: 1 %); assay type: functional
# MCF7 = test: Antiproliferative activity against human MCF7 assessed as reduction in cell viability measured after 48 hrs by MTT assay; assay type: functional, cell-based; conditions: MCF7, 48 h
# HCT-116 = test: Antiproliferative activity against human HCT-116 assessed as reduction in cell viability measured after 48 hrs by MTT assay; assay type: functional, cell-based; conditions: HCT-116, 48 h
# Tubulin beta = test: Inhibition of beta-tubulin polymerization in human HeLa cells assessed as inhibition of EBI-beta-tubulin adduct formation measured by Western blot-based EBI competition assay; assay type: cell-based
# [20] = Metabolic stability in human liver microsomes assessed as parent compound remaining measured immediately after compound addition; assay type: ADME, Microsome; conditions: read-out: Stability
# Tubulin (Homo sapiens) = Tubulin (Homo sapiens) (UniProt P68371+Q9H4B7+P0DPH7+P68366+Q13509+Q71U36+P04350+Q3ZCM7+P07437+P68363+Q9BQE3+Q6PEY2+Q13885+Q9BVA1+Q9BUF5); test: Induction of microtubule disruption in human Hela cells assessed as fragmented and disassembled microtubule network in cytosol at 10 to 50 nM incubated for 24 hrs by AlexaFluor 488 dye/DAPI staining based immunofluorescence assay; assay type: cell-based; conditions: dose 10-50 nM
# HeLa [21] = test: Induction of cell cycle arrest in human HeLa cells assessed as accumulation of cells at G2/M phase at 50 nM incubated for 24 hrs by propidium iodide staining based flow cytometry analysis; assay type: functional
# HeLa [22] = test: Inhibition of cell migration in human HeLa cells at 10 nM incubated for 24 hrs by microscopy method relative to control; assay type: functional
# Tubulin = test: Inhibition of tubulin polymerization (unknown origin) assessed as fluorescence intensity measured for 90 mins by DAPI based microplate reader; assay type: functional, Homo sapiens
# HeLa [23] = test: Induction of apoptosis in human HeLa cells assessed as viable cells at 50 nM incubated for 48 hrs by Annexin V and propidium iodide Staining based assay (reference value: 98.5 %); assay type: functional; conditions: read-out: Activity
# HeLa [24] = test: Induction of apoptosis in human HeLa cells assessed as viable cells at 10 nM incubated for 48 hrs by Annexin V and propidium iodide Staining based assay (reference value: 98.5 %); assay type: functional; conditions: read-out: Activity
# HeLa [25] = test: Induction of apoptosis in human HeLa cells assessed as late apoptotic cells at 10 nM incubated for 48 hrs by Annexin V and propidium iodide Staining based assay (reference value: 1 %); assay type: functional
# [26] = Metabolic stability in human liver microsomes assessed as parent compound remaining after 15 mins; assay type: ADME, Microsome; conditions: read-out: Stability
# HeLa [27] = test: Induction of apoptosis in human HeLa cells assessed as necrotic cells at 25 nM incubated for 48 hrs by Annexin V and propidium iodide Staining based assay (reference value: 0.4%); assay type: functional
# HeLa [28] = test: Induction of cell cycle arrest in human HeLa cells assessed as reduction in Cdc2 expression at 10 to 1000 nM measured after 24 hrs by immunoblotting assay; assay type: functional, cell-based; conditions: dose 10-1000 nM
# HeLa [29] = test: Induction of cell cycle arrest in human HeLa cells assessed as accumulation of cells at G2/M phase at 10 nM incubated for 24 hrs by propidium iodide staining based flow cytometry analysis; assay type: functional
# HeLa [30] = test: Induction of apoptosis in human HeLa cells assessed as viable cells at 25 nM incubated for 48 hrs by Annexin V and propidium iodide Staining based assay (reference value: 98.5 %); assay type: functional; conditions: read-out: Activity
# HeLa [31] = test: Induction of apoptosis in human HeLa cells assessed as increase in bax protein expression after 24 hrs by Western blot analysis; assay type: functional, cell-based; conditions: dose 10-1000 nM
# [32] = Metabolic stability in human liver microsomes assessed as half life; assay type: ADME, Microsome
# HeLa [33] = test: Induction of apoptosis in human HeLa cells assessed as increase in bad protein expression after 24 hrs by Western blot analysis; assay type: functional, cell-based; conditions: dose 10-1000 nM
# HeLa [34] = test: Induction of apoptosis in human HeLa cells assessed as necrotic cells at 50 nM incubated for 48 hrs by Annexin V and propidium iodide Staining based assay (reference value: 0.4%); assay type: functional
# HeLa [35] = test: Induction of apoptosis in human HeLa cells assessed as viable cells at 5 nM incubated for 48 hrs by Annexin V and propidium iodide Staining based assay (reference value: 98.5 %); assay type: functional; conditions: read-out: Activity
# HeLa [36] = test: Induction of apoptosis in human HeLa cells assessed as necrotic cells at 5 nM incubated for 48 hrs by Annexin V and propidium iodide Staining based assay (reference value: 0.4%); assay type: functional
# HeLa [37] = test: Induction of apoptosis in human HeLa cells assessed as early apoptotic cells at 5 nM incubated for 48 hrs by Annexin V and propidium iodide Staining based assay (reference value: 0.2%); assay type: functional
# HeLa [38] = test: Induction of apoptosis in human HeLa cells assessed as late apoptotic cells at 5 nM incubated for 48 hrs by Annexin V and propidium iodide Staining based assay (reference value: 1 %); assay type: functional
smiles,measurement,setting,value
COc1cc(-c2nnc3c(OC)cc(-c4ccc5c(ccn5C)c4)cn23)cc(OC)c1OC,Activity,HeLa [1],Dose-dependent effect
same,remaining at 1.5 h,[2],30.1%
same,Activity,HeLa [3],Dose-dependent effect
same,Activity,HeLa [4],11.1%
same,Activity,HeLa [5],Dose-dependent effect
same,Activity,HeLa [6],Dose-dependent effect
same,remaining at 1 h,[7],37.5%
same,Activity,HeLa [8],7.1%
same,IC50,A549,69 nM
same,Activity,HeLa [9],65.7%
same,Activity,HeLa [10],2.4%
same,inhibition at 0.005 µM,HeLa [11],22.1%
same,Activity,HeLa [12],17.4%
same,remaining at 0.5 h,[13],55.5%
same,Activity,HeLa [14],Active
same,Activity,HeLa [15],Active
same,IC50,HeLa [16],15 nM
same,inhibition at 0.025 µM,HeLa [17],44.3%
same,Activity,HeLa [18],27.6%
same,Activity,HeLa [19],54%
same,IC50,MCF7,49 nM
same,IC50,HCT-116,33 nM
same,IC50,Tubulin beta,Dose-dependent effect
same,remaining at 0 min,[20],100%
same,Activity,Tubulin (Homo sapiens),Active
same,Activity,HeLa [21],77%
same,inhibition at 0.01 µM,HeLa [22],32.2%
same,IC50,Tubulin,1640 nM
same,viability at 0.05 µM,HeLa [23],4.2%
same,viability at 0.01 µM,HeLa [24],41.8%
same,Activity,HeLa [25],48.8%
same,remaining at 0.25 h,[26],75.9%
same,Activity,HeLa [27],3.6%
same,Activity,HeLa [28],Active
same,Activity,HeLa [29],37.7%
same,viability at 0.025 µM,HeLa [30],31.2%
same,Activity,HeLa [31],Dose-dependent effect
same,half-life,[32],51.7 min
same,Activity,HeLa [33],Dose-dependent effect
same,Activity,HeLa [34],2.6%
COc1ccc(/C=C\c2cc(OC)c(OC)c(OC)c2)cc1O [COMBRETASTATIN A4],remaining at 1.5 h,[2],15.4%
same,remaining at 1 h,[7],26.1%
same,IC50,A549,15 nM
same,remaining at 0.5 h,[13],54.1%
same,IC50,MCF7,10 nM
same,viability at 0.005 µM,HeLa [35],6.7%
same,Activity,HeLa [36],2.6%
same,Activity,HeLa [37],38.6%
same,remaining at 0 min,[20],100%
same,Activity,HeLa [38],52.2%
same,remaining at 0.25 h,[26],75.6%
same,half-life,[32],32.5 min
